Patent US4348393A, “N-Aryl oxazolidinones, oxazolidinethiones, pyrrolidinones, pyrrolidines and thiazolidinones” (Delalande S.A., priority 1978, dated 1982)
Like-named read-outs stand apart in the source and are kept apart here.

How the values were obtained:
[1] = test system: generalized trembling caused by dl-5-hydroxytryptophane; assay: Test A: potentiation in mice of generalized trembling caused by dl-5-hydroxytryptophane; assay type: in vivo; conditions: Mus musculus, po, read-out: Test A ED 50
Description: Test A: Potentiation in mice of generalized trembling caused by an interperitoneal injection (200 mg/kg) of dl-5-hydroxytryptophane, following the protocol described by C. GOURET and G. RAYNAUD in J. Pharmacol. (Paris), (1974), 5, 231.

[2] = test system: ptosis observed one hour after reserpine; assay: Test B: antagonism of reserpine-induced ptosis in mice; assay type: in vivo; conditions: Mus musculus, 1 h, po, antagonism of ptosis one hour after reserpine 2 mg/kg intravenous, read-out: Test B ED 50
Description: Test B: Antagonism with respect to the ptosis observed one hour after an intravenous injection (2 mg/kg) of reserpine given to mice, following the protocol described by C.

[3] = Toxicity LD50 mouse; conditions: in vivo, po, read-out: Toxicity LD 50
[4] = mice, potentiation of trembling by dl-5-hydroxytryptophane 200 mg/kg interperitoneal

SMILES	ED50 [1, 4]	ED50 [2]	LD50 [3]	ED50 [1]
CCC(=O)OCC1CN(c2ccc(OCc3ccccc3)cc2)C(=O)O1 (stereo not drawn) [compound 24]	9 mg/kg	12.5 mg/kg	> 2000 mg/kg	–
COCC1CN(c2ccc(/C=C/c3ccccc3)cc2)C(=O)O1 (stereo not drawn) [compound 187]	2.7 mg/kg	1.3 mg/kg	> 1000 mg/kg	–
COCC1CN(c2ccc(OCc3cc(C#N)cc([N+](=O)[O-])c3)cc2)C(=O)O1 (stereo not drawn) [compound 161]	1.1 mg/kg	0.36 mg/kg	> 2000 mg/kg	–
COCC1CN(c2ccc(OCCCCCl)cc2)C(=O)O1 (stereo not drawn) [compound 234]	0.6 mg/kg	4 mg/kg	> 1000 mg/kg	–
N#Cc1cc(COc2ccc(N3CC(CO)OC3=S)cc2)ccc1F (stereo not drawn) [compound 209]	7 mg/kg	6.7 mg/kg	1000 mg/kg	–
CC(C)NCC1CN(c2ccc(OCc3cccc([N+](=O)[O-])c3)cc2)C(=O)O1 (stereo not drawn) [compound 201]	7.4 mg/kg	6.8 mg/kg	> 1000 mg/kg	–
CN(C)CC1CN(c2ccc(OCc3cccc(C#N)c3)cc2)C(=O)O1 (stereo not drawn) [compound 206]	6 mg/kg	4.3 mg/kg	> 1000 mg/kg	–
COCC1CN(c2ccc(OCC3CCCC3)cc2)C(=S)O1 (stereo not drawn) [compound 211]	2 mg/kg	1.2 mg/kg	1000 mg/kg	–
COCC1CN(c2ccc(OCc3cccnc3)cc2)C(=S)O1 (stereo not drawn) [compound 213]	3 mg/kg	2 mg/kg	1000 mg/kg	–
CNCC1CN(c2ccc(OCc3cccc([N+](=O)[O-])c3)cc2)C(=O)O1 (stereo not drawn) [compound 85]	3 mg/kg	2 mg/kg	1000 mg/kg	–
COCC1CN(c2ccc(OCC3=CCCC3)cc2)C(=O)O1 (stereo not drawn) [compound 184]	1.2 mg/kg	0.72 mg/kg	> 1000 mg/kg	–
CC(=O)OCC1CN(c2ccc(OCCC#N)cc2)C(=O)O1 (stereo not drawn) [compound 3]	3.1 mg/kg	2.7 mg/kg	> 2000 mg/kg	–
CCCOCC1CN(c2ccc(OCc3cccc([N+](=O)[O-])c3)cc2)C(=S)O1 (stereo not drawn) [compound 210]	26 mg/kg	7.4 mg/kg	> 1000 mg/kg	–
CCOCC1CN(c2ccc(OCc3cccc([N+](=O)[O-])c3)cc2)C(=S)O1 (stereo not drawn) [compound 216]	5 mg/kg	3 mg/kg	1000 mg/kg	–
COCC1CN(c2ccc(/C=C/c3cccc(Cl)c3)cc2)C(=O)O1 (stereo not drawn) [compound 190]	1 mg/kg	0.23 mg/kg	> 1000 mg/kg	–
COCC1CN(c2ccc(OCC3CCCCC3)cc2)C(=S)O1 (stereo not drawn) [compound 114]	3.7 mg/kg	2 mg/kg	> 2000 mg/kg	–
N#CCCCCOc1ccc(N2CC(CO)OC2=S)cc1 (stereo not drawn) [compound 215]	6.2 mg/kg	10 mg/kg	> 1000 mg/kg	–
CCC(=O)OCC1CN(c2ccc(OCc3cccc(C#N)c3)cc2)C(=O)O1 (stereo not drawn) [compound 132]	3 mg/kg	2 mg/kg	> 2000 mg/kg	–

SMILES	ED50 [1, 4]	ED50 [2]	LD50 [3]	ED50 [1]
COCC1CN(c2ccc(OCc3ccc(F)c([N+](=O)[O-])c3)cc2)C(=O)O1 (stereo not drawn) [compound 169]	3 mg/kg	4.1 mg/kg	> 1000 mg/kg	–
CC(=O)OCC1CN(c2ccc(OCCC(C)C)cc2)C(=O)O1 (stereo not drawn) [compound 123]	2 mg/kg	1.4 mg/kg	> 2000 mg/kg	–
OCC1CCN(c2ccc(OCc3ccccc3)cc2)C1 (stereo not drawn) [compound 220, N-parabenzyloxyphenyl hydroxymethyl-3 pyrrolidine]	50 mg/kg	50 mg/kg	> 1000 mg/kg	–
COCC1CN(c2ccc(OCc3cccc(I)c3)cc2)C(=O)O1 (stereo not drawn) [compound 198]	40 mg/kg	34 mg/kg	> 1000 mg/kg	–
CC=CCOc1ccc(N2CC(COC)OC2=O)cc1 (stereo not drawn) [compound 179]	–	7 mg/kg	> 1000 mg/kg	4.5 mg/kg
COCC1CN(c2ccc(OCc3cccc([N+](=O)[O-])c3)cc2)C(=S)O1 (stereo not drawn) [compound 118]	1 mg/kg	0.1 mg/kg	> 2000 mg/kg	–
COCC1CN(c2ccc(OCc3cc(C#N)cc([N+](=O)[O-])c3)cc2)C(=S)O1 (stereo not drawn) [compound 218]	7.2 mg/kg	13.5 mg/kg	> 1000 mg/kg	–
O=C1CC(CO)CN1c1ccc(OCc2cccc([N+](=O)[O-])c2)cc1 (stereo not drawn) [compound 99]	50 mg/kg	30 mg/kg	> 2000 mg/kg	–
COCC1CN(c2ccc(OCC=C(C)C)cc2)C(=O)O1 (stereo not drawn) [compound 185]	12 mg/kg	7 mg/kg	> 1000 mg/kg	–
CC(C)CCOc1ccc(N2CC(CO)OC2=S)cc1 (stereo not drawn) [compound 91]	–	5.5 mg/kg	> 2000 mg/kg	4.5 mg/kg
COCC1CN(c2ccc(OCC3CCC3)cc2)C(=O)O1 (stereo not drawn) [compound 183]	1.9 mg/kg	2.4 mg/kg	> 1000 mg/kg	–
COCC1CN(c2ccc(OCCN3CCOCC3)cc2)C(=O)O1 (stereo not drawn) [compound 181]	4 mg/kg	9 mg/kg	> 1000 mg/kg	–
NCC1CN(c2ccc(OCc3cc(Cl)cc([N+](=O)[O-])c3)cc2)C(=O)O1 (stereo not drawn) [compound 207]	9.1 mg/kg	7.6 mg/kg	> 1000 mg/kg	–
COCC1CN(c2ccc(OCc3cccc([N+](=O)[O-])c3)cc2)C(=O)O1 (stereo not drawn) [compound 61, para (meta-nitrobenzyloxy) phenyl-3 methoxymethyl-5 oxazolidinone-2]	0.08 mg/kg	0.1 mg/kg	1500 mg/kg	–
O=[N+]([O-])c1cccc(COc2ccc(N3CC(CO)OC3=S)cc2)c1 (stereo not drawn) [compound 94]	1.5 mg/kg	1 mg/kg	> 2000 mg/kg	–
COCC1CN(c2ccc(OCc3cccc([N+](=O)[O-])c3)cc2)C(=O)S1 (stereo not drawn) [compound 219, para (metanitro) benzyloxyphenyl-3 methoxymethyl-5 thiazolidinone-2]	7 mg/kg	13.5 mg/kg	> 1000 mg/kg	–
O=C(COc1ccccc1)OCC1CN(c2ccc(OCc3cccc([N+](=O)[O-])c3)cc2)C(=O)O1 (stereo not drawn) [compound 178]	33 mg/kg	28 mg/kg	> 1000 mg/kg	–
